US20070276040A1, “Peptidyl Arginine Deiminase Type IV Inhibitor” (priority 2004, published 2007)

Molecular target: T1, PAD4 (Homo sapiens, UniProt Q9UM07, G112A/G55S/V82A)
T1 construct: made in house
Assay: Inhibition reaction of Bz-Arg derivatives on PAD4 digestion
Type: biochemical
Settings: substrate Bz-Arg; 20 μl inhibitor solution of 1 nmol/μl; 10 mM CaCl2, pH 7.6; 37° C. for 40 or 60 minutes; reverse-phase HPLC
Protocol: A buffer solution B (0.1 M Tris/HCl, 10 mM CaCl2, 2 mM DTT, pH 7.6, 125 μl), Bz-Arg (0.1 M Tris/HCl, 10 mM CaCl2, pH 7.6, 25 μl (a solution prepared in a concentration of 1 nmol/μl)) and PAD4 (1 μl) were mixed together under ice-cooling to give a Bz-Arg solution. PAD4 was prepared in accordance with the methods described in The Journal of Biological Chemistry, Vol. 277, No. 51, pp. 49562-49568, 2002 and in the documents cited in the journal. Twenty μl each of Bz-Arg (mono-methyl), Bz-ADMA, Bz-SDMA and a buffer solution A (0.1 M Tris/HCl, 10 mM CaCl2, pH 7.6) (a solution prepared in a concentration of 1 nmol/μl) was mixed with the Bz-Arg solution (30 μl) and allowed to react at 37° C. for 40 or 60 minutes. The reaction was quenched with 1 M HCl (50 μl) and then subjected to reverse-phase HPLC to separate the reaction mixture. […] The results as determined 40 minutes and 60 minutes after the start of reaction are shown in FIG. 3 and FIG. 4, respectively. In FIGS. 3 and 4, the reference number 1 represents the result with no inhibitor, 2 for the result with Bz-Arg (mono-methyl), 3 for the results with Bz-ADMA, and 4 for the result with Bz-SDMA; the vertical axis indicates the sample number and the horizontal axis indicates the yield of the deimination reaction (i.e., yield of the Bz-citrulline produced).

T1 sequence (Q9UM07 whole entry G55S/V82A/G112A): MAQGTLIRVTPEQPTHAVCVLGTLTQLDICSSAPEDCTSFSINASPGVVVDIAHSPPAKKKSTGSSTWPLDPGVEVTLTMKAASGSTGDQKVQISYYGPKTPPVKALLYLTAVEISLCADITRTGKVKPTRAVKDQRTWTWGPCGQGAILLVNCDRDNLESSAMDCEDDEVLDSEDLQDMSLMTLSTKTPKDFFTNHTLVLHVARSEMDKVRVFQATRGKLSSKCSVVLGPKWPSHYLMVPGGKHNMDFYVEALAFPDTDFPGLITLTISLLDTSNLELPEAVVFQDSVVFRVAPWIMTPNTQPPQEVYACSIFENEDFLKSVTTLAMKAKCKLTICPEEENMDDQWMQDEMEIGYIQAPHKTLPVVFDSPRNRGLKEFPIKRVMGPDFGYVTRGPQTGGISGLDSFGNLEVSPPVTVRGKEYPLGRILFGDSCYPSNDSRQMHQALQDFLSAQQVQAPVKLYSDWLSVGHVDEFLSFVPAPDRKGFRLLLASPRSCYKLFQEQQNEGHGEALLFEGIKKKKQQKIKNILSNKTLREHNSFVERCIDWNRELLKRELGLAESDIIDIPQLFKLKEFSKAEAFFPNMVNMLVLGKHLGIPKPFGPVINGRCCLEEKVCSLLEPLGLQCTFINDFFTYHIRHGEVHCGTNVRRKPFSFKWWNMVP

| Structure (SMILES) | inhibitory effect on PAD4 digestion (deimination of Bz-Arg, yield of the Bz-citrulline produced) |
| --- | --- |
| CN(C)C(=N)NCCCC(NC(=O)c1ccccc1)C(=O)O (centres unmarked) [Bz-ADMA] | most potent inhibitory effect |
| C/N=C(/NC)NCCCC(NC(=O)c1ccccc1)C(=O)O (centres unmarked) [Bz-SDMA] | no inhibitory effect |
